Assay results published in the supplement of paper PMC10307832.

Key:
Assay in all cases: relative viability (nuclei count vs DMSO), 5 days (fraction); higher = more cells survive
[1] = compound: C1CNCCC1C2=CC(=NN2)C3=CC=NC=C3 + CC1(C)CCC(c2ccc(Cl)cc2)=C(CN2CCN(c3ccc(C(=O)NS(=O)(=O)c4ccc(N[C@H](CCN5CCOCC5)CSc5ccccc5)c(S(=O)(=O)C(F)(F)F)c4)cc3)CC2)C1 [Navitoclax] (partner 0.5 µM)
Method in brief: (§1)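 For relative viability, nuclei counts in treated wells were divided by those in vehicle wells. Lung cancer cell lines had been pin-tool dosed in 1536-well plates the day after seeding and cultured for 5 days, then fixed and stained in one step (final 0.05% Triton X-100, 1% formaldehyde, 1 ug/ml Hoechst) and imaged at 4×. Doses were one drug alone or a fixed anchor-drug dose plus five library-drug doses (not always all listed) in √10 steps, and values are duplicate-plate medians.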

[2] = compound: C[C@@H](N)c1ccc(C(=O)Nc2ccnc3[nH]ccc23)cc1 + CC1(C)CCC(c2ccc(Cl)cc2)=C(CN2CCN(c3ccc(C(=O)NS(=O)(=O)c4ccc(N[C@H](CCN5CCOCC5)CSc5ccccc5)c(S(=O)(=O)C(F)(F)F)c4)cc3)CC2)C1 [Navitoclax] (partner 0.5 µM)
Method in brief: as §1

Tanzisertib + Pemetrexed = compound: O[C@H]1CC[C@H](Nc2ncc3nc(Nc4c(F)cc(F)cc4F)n([C@H]4CCOC4)c3n2)CC1 [Tanzisertib] + Nc1nc2[nH]cc(CCc3ccc(C(=O)N[C@@H](CCC(=O)O)C(=O)O)cc3)c2c(=O)[nH]1 [Pemetrexed] (partner 0.2 µM)
Method in brief: as §1

[3] = compound: C[C@@H](N)c1ccc(C(=O)Nc2ccnc3[nH]ccc23)cc1 + CC(=O)c1c(C)c2cnc(Nc3ccc(N4CCNCC4)cn3)nc2n(C2CCCC2)c1=O [Palbociclib] (partner 0.5 µM)
Method in brief: as §1

| Cell Line | relative viability ([1]; first compound 0.08 µM) | relative viability ([1]; first compound 0.8 µM) | relative viability ([1]; first compound 2.53 µM) | relative viability ([1]; first compound 8 µM) | relative viability ([2]; first compound 0.04 µM) | relative viability ([2]; first compound 0.1265 µM) | relative viability ([2]; first compound 0.4 µM) | relative viability ([2]; first compound 1.265 µM) | relative viability ([2]; first compound 4 µM) | relative viability (Tanzisertib + Pemetrexed; first compound 0.08 µM) | relative viability (Tanzisertib + Pemetrexed; first compound 0.253 µM) | relative viability (Tanzisertib + Pemetrexed; first compound 0.8 µM) | relative viability (Tanzisertib + Pemetrexed; first compound 2.53 µM) | relative viability (Tanzisertib + Pemetrexed; first compound 8 µM) | relative viability ([3]; first compound 0.04 µM) | relative viability ([3]; first compound 0.1265 µM) | relative viability ([3]; first compound 0.4 µM) | relative viability ([3]; first compound 1.265 µM) | relative viability ([3]; first compound 4 µM) |
| --- | --- | --- | --- | --- | --- | --- | --- | --- | --- | --- | --- | --- | --- | --- | --- | --- | --- | --- | --- |
| SK-LU-1 | 1.25 | 0.913 | 0.85 | 0.88 | 0.922 | 0.786 | 0.778 | 0.633 | 0.503 | 1.07 | 0.949 | 1.02 | 0.969 | 0.979 | 0.42 | 0.44 | 0.465 | 0.273 | 0.338 |
| LOU-NH91 | 0.653 | 0.762 | 0.866 | 0.703 | 0.61 | 0.679 | 0.602 | 0.615 | 0.615 | 0.42 | 0.42 | 0.399 | 0.403 | 0.387 | 0.581 | 0.527 | 0.533 | 0.536 | 0.448 |
| LXF-289 | 0.957 | 1.02 | 0.977 | 0.934 | 1.01 | 0.915 | 1.02 | 1.07 | 0.876 | 0.902 | 0.923 | 1.01 | 0.915 | 1.02 | 0.613 | 0.611 | 0.565 | 0.61 | 0.512 |
| NCI-H1299 | 1.09 | 1.04 | 1.02 | 1.09 | 1.06 | 0.988 | 0.983 | 0.973 | 0.932 | – | – | – | – | – | – | – | – | – | – |
| HARA | 1.13 | 1.14 | 1.17 | 1.2 | 1.14 | 1.2 | 1.19 | 1.27 | 0.889 | 0.282 | 0.275 | 0.282 | 0.24 | 0.245 | 0.292 | 0.271 | 0.28 | 0.214 | 0.248 |
| LU99A | 0.662 | 0.872 | 0.776 | 0.732 | 0.834 | 0.851 | 0.967 | 0.839 | 0.798 | 0.167 | 0.191 | 0.172 | 0.159 | 0.19 | – | 0.372 | 0.387 | 0.343 | 0.275 |
| 201T | 1.25 | 1.15 | 1.2 | 1.18 | 1.15 | 1.1 | 1.16 | 1.2 | 1.37 | 0.321 | 0.322 | 0.325 | 0.314 | 0.298 | 0.367 | 0.342 | 0.376 | 0.359 | 0.415 |
| HCC-827 | 0.972 | 0.995 | 0.991 | 0.876 | 0.872 | 0.993 | 0.971 | 1.05 | 0.843 | 0.266 | 0.229 | 0.25 | 0.251 | 0.175 | – | 0.442 | 0.478 | 0.476 | 0.433 |
| NCI-H1666 | 0.807 | 0.877 | 1.06 | 1.02 | 1.05 | 1.21 | 1.09 | 1.19 | 1.17 | 0.894 | 0.789 | 0.865 | 0.941 | 0.796 | 0.661 | 0.63 | 0.636 | 0.616 | 0.668 |
| NCI-H1915 | 0.798 | 0.784 | 0.78 | 0.778 | 0.755 | 0.792 | 0.817 | – | 0.723 | 0.565 | 0.451 | 0.486 | 0.501 | 0.49 | – | 0.504 | 0.52 | – | 0.431 |
| NCI-H2009 | 1.16 | 1.18 | 1.17 | 1.14 | 1.03 | 1.13 | 1.05 | 1.01 | 0.801 | 1.01 | 1.03 | 0.957 | 1.04 | 1.1 | 0.194 | 0.2 | 0.213 | 0.153 | 0.154 |
| ChaGo-K-1 | 0.861 | 1.29 | 0.682 | 1.01 | 1.07 | 1.01 | 1.19 | – | 0.891 | 0.251 | 0.25 | 0.242 | 0.261 | 0.274 | 0.923 | 0.908 | 0.947 | 0.893 | 0.865 |
| COR-L 105 | 0.751 | 0.706 | 0.774 | 0.788 | 0.795 | 0.74 | 0.783 | 0.769 | 0.519 | 1.4 | 1.12 | 1.14 | 1.28 | 0.884 | 0.377 | 0.399 | 0.424 | 0.348 | 0.371 |
| NCI-H2170 | 0.472 | 0.697 | 0.72 | 0.698 | 0.682 | 0.564 | 0.57 | 0.61 | 0.479 | 0.265 | 0.292 | 0.282 | 0.265 | 0.251 | 0.423 | 0.412 | 0.423 | 0.417 | 0.395 |
| A549 | 1.1 | 1.27 | 1.38 | 1.3 | 1.23 | 1.31 | 1.18 | 1.21 | 0.714 | – | – | – | – | – | – | – | – | – | – |
